Data: US5258397A, “3-Isoxazoyl derivatives endowed with anticonvulsant activity, procedure for their preparation and their pharmaceutical compositions” (Novapharme, priority 1988, dated 1993)

Key:
SWISS CDl mice [1] = assay: Seizures induced by pentetrazole (anticonvulsant activity); type: in vivo; conditions: i.p., % protected against clonic seizures; for % protection against Pentetrazole 30 mn.: 1/10 of the LD50, 30 mn before pentetrazole 70 mg/kg s.c.; for % protection against Pentetrazole 4 h: 1/10 of the LD50, 4 hours before pentetrazole 70 mg/kg s.c.
Procedure: (§1) The anticonvulsant activity is measured by the electroshock and pentetrazole tests according to the procedure of A. SWINYARD (ADD PROGRAM OF NINCDS BY H. J. KUPFERBERG. E. A. SWINYARD AND G. D. GLADDING in Advances in Epileptology/XIIth Epilepsy International Symposium edited by M. DAM, L. GRAM and J. K. PENRY-RAVEN press N.Y. 1981). The compounds are always administered (at 1/10 of the LD50) by IP injections into SWISS CDl mice (Charles River) of 20-25 g mean weight. All of the compounds are dissolved in a 0.9% solution of sodium chloride or suspended in a 1% solution of carboxymethyl cellulose or tween.
Seizures induced by pentetrazole. 70 mg/kg of pentetrazole are injected by the subcutaneous route into groups of 10 mice (1 control group and one treated group) in a volume of 0.2 ml/20 g of body weight. The compounds to be tested are administered either 30 mn before pentetrazole or 4 hours before pentetrazole by the intraperitoneal route. The animals are observed for 30 mn. The number of clonic seizures lasting 5 seconds or more and the percentage of the animals protected against clonic seizures are recorded.

SWISS CDl mice [2] = assay: Electroshock test (anticonvulsant activity); type: in vivo; conditions: i.p., % of animals not extending the hind paws; for % protection against Electro shock 30 min.: 1/10 of the LD50, 30 min before electroshock; for % protection against Electro shock 4 h: 1/10 of the LD50, 4 hours before electroshock
Procedure: as §1
Electroshock test. Groups of 10 mice (1 control group and one treated group) are used for each compound. The treated group receives the compound to be tested by the intraperitoneal route either 30 mn before the electroshock or 4 hours before the electroshock. This latter is applied with the aid of corneal electrodes (50 milliamperes for 0.2 second). Protection is measured by the percentage of animals not extending the hind paws.

[3] = Determination of the lethal dose 50 (MILLER and TAINTER); conditions: in vivo, ip
Procedure: The toxicity is measured by the technique of MILLER and TAINTER by the intraperitoneal route.

mice = assay: Cerebral protective activity: hypoxia induced by the altitude; type: in vivo; conditions: i.p., 30 min before closed chamber at 210 mm Hg
Procedure: Five mice (20 to 25 g) receive an administration of the compound or the liquid vehicle by the intraperitoneal route 30 min. before being placed in a closed chamber in which the atmospheric pressure is reduced to 210 mm Hg. The time of survival (in seconds) is measured from the induction of hypoxia to the cessation of respiratory movements.

Structure (SMILES) | % protection against Pentetrazole 30 mn. (SWISS CDl mice [1]) [%] | % protection against Pentetrazole 4 h (SWISS CDl mice [1]) [%] | % protection against Electro shock 30 min. (SWISS CDl mice [2]) [%] | % protection against Electro shock 4 h (SWISS CDl mice [2]) [%] | LD50 ([3]; intraperitoneal route) [mg/kg] | hypoxia induced by the altitude; increase time of survival as % of controls (mice) | LD50 [3] [mg/kg]
Cc1cccc(C)c1NC(=O)c1cc(CF)on1 [Compound 31, 3-(2,6-dimethylphenylcarbamoyl) 5-fluoromethyl isoxazole] | 0 | 0 | 100 | 0 | 375 |  | 
CC(=O)n1nc(C(=O)Nc2c(C)cccc2Cl)cc1C [Compound 2, 3-(2-chloro 6-methylphenylcarbamoyl) 1-acetyl 5-methyl pyrazole] | 80 | 0 | 100 | 0 | 350 |  | 
COc1cc(C(=O)Nc2c(C)cccc2C)nn1C [Compound 15, 3-(2,6-dimethylphenylcarbamoyl) 1-methyl 5-methoxy pyrazole] | 0 | 10 | 10 | 0 | 400 | 21 % of controls | 
CC(=O)n1nc(C(=O)Nc2c(C)cccc2C)cc1C [Compound 41] | 50 | 0 | 100 | 0 |  |  | 350
Cc1cccc(C)c1NC(=O)c1cc(COC(=O)c2ccccc2)on1 [Compound 29] | 10 | 10 | 70 | 0 |  |  | 2000
Cc1cccc(Cl)c1NC(=O)c1cc(C)n(C)n1 [Compound 5, 3-(2-chloro 6-methylphenylcarbamoyl) 1,5-dimethyl pyrazole] | 40 | 10 | 100 | 10 | 500 |  | 
Cc1cccc(C)c1C(=O)Nc1cc(C)n(C)n1 [Compound 3, N-(1,5-dimethyl-3-pyrazolyl)2,6-dimethylbenzamide] | 50 | 0 | 100 | 0 | 1000 |  | 
Cc1cccc(C)c1N(C)C(=O)c1cc(C)n(C)n1 [Compound 7] | 30 | 0 | 70 | 0 |  |  | 400
Cc1cc(NC(=O)c2c(C)cccc2C)no1 [Compound 17] | 30 | 20 | 100 | 0 |  |  | 2000
Cc1cccc(C)c1NC(=O)c1cc(C)n(C)n1 [Compound 4, 3-(2,6-dimethylphenylcarbamoyl) 1,5-dimethyl pyrazole] | 30 | 10 | 100 | 0 | 150 | 60 % of controls | 
